The supplement of paper PMC10307832

Legend:
Assay in all cases: relative viability (nuclei count vs DMSO), 5 days (fraction); higher = more cells survive
NCI-H1437 = system: NCI-H1437
Procedure, shortened: (§1)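 Relative viability equals treated-well nuclei counts divided by vehicle-well nuclei counts. Counts came from 4× images of lung cancer cell lines grown in 1536-well plates for 5 days after pin-tool dosing on the day after seeding. Dosing used one drug alone or a fixed anchor-drug dose plus five library-drug doses (not always all listed) in √10 steps, and values are medians of duplicate plates.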

RERF-LC-KJ = system: RERF-LC-KJ
Procedure, shortened: as §1

NCI-H1793 = system: NCI-H1793
Procedure, shortened: as §1

HCC-44 = system: HCC-44
Procedure, shortened: as §1

NCI-H1395 = system: NCI-H1395
Procedure, shortened: as §1

NCI-H322M = system: NCI-H322M
Procedure, shortened: as §1

BEN = system: BEN
Procedure, shortened: as §1

NCI-H1355 = system: NCI-H1355
Procedure, shortened: as §1

CAL-12T = system: CAL-12T
Procedure, shortened: as §1

LCLC-97TM1 = system: LCLC-97TM1
Procedure, shortened: as §1

NCI-H647 = system: NCI-H647
Procedure, shortened: as §1

NCI-H2087 = system: NCI-H2087
Procedure, shortened: as §1

NCI-H1650 = system: NCI-H1650
Procedure, shortened: as §1

NCI-H2405 = system: NCI-H2405
Procedure, shortened: as §1

201T = system: 201T
Procedure, shortened: as §1

NCI-H3122 = system: NCI-H3122
Procedure, shortened: as §1

NCI-H727 = system: NCI-H727
Procedure, shortened: as §1

NCI-H2228 = system: NCI-H2228
Procedure, shortened: as §1

HOP-62 = system: HOP-62
Procedure, shortened: as §1

LXF-289 = system: LXF-289
Procedure, shortened: as §1

HCC-827 = system: HCC-827
Procedure, shortened: as §1

SK-LU-1 = system: SK-LU-1
Procedure, shortened: as §1

LCLC-103H = system: LCLC-103H
Procedure, shortened: as §1

NCI-H2023 = system: NCI-H2023
Procedure, shortened: as §1

Clc1ccc(Nc2nnc(Cc3ccncc3)c3ccccc23)cc1 [Vatalanib] + O=C(CCCCCCC(=O)Nc1ccccc1)NO [Vorinostat] (partner 1 µM)
relative viability (NCI-H1437; first compound 0.04 µM): 0.836
relative viability (NCI-H1437; first compound 0.1265 µM): 0.851
relative viability (NCI-H1437; first compound 0.4 µM): 0.88
relative viability (NCI-H1437; first compound 1.265 µM): 0.616
relative viability (NCI-H1437; first compound 4 µM): 0.673
relative viability (RERF-LC-KJ; first compound 0.04 µM): 0.714
relative viability (RERF-LC-KJ; first compound 0.1265 µM): 0.747
relative viability (RERF-LC-KJ; first compound 0.4 µM): 0.69
relative viability (RERF-LC-KJ; first compound 1.265 µM): 0.665
relative viability (RERF-LC-KJ; first compound 4 µM): 0.651
relative viability (NCI-H1793; first compound 0.04 µM): 0.767
relative viability (NCI-H1793; first compound 0.1265 µM): 0.845
relative viability (NCI-H1793; first compound 0.4 µM): 0.97
relative viability (NCI-H1793; first compound 1.265 µM): 0.66
relative viability (NCI-H1793; first compound 4 µM): 0.71
relative viability (HCC-44; first compound 0.04 µM): 1.11
relative viability (HCC-44; first compound 0.1265 µM): 1.08
relative viability (HCC-44; first compound 0.4 µM): 1.09
relative viability (HCC-44; first compound 1.265 µM): 1.04
relative viability (HCC-44; first compound 4 µM): 1.07
relative viability (NCI-H1395; first compound 0.04 µM): 0.71
relative viability (NCI-H1395; first compound 0.1265 µM): 0.55
relative viability (NCI-H1395; first compound 0.4 µM): 0.6
relative viability (NCI-H1395; first compound 4 µM): 0.726
relative viability (NCI-H322M; first compound 0.04 µM): 0.898
relative viability (NCI-H322M; first compound 0.1265 µM): 0.867
relative viability (NCI-H322M; first compound 0.4 µM): 0.825
relative viability (NCI-H322M; first compound 4 µM): 0.899
relative viability (BEN; first compound 0.04 µM): 0.57
relative viability (BEN; first compound 0.1265 µM): 0.625
relative viability (BEN; first compound 0.4 µM): 0.594
relative viability (BEN; first compound 1.265 µM): 0.561
relative viability (BEN; first compound 4 µM): 0.61
relative viability (NCI-H1355; first compound 0.04 µM): 0.684
relative viability (NCI-H1355; first compound 0.1265 µM): 0.691
relative viability (NCI-H1355; first compound 0.4 µM): 0.727
relative viability (NCI-H1355; first compound 1.265 µM): 0.57
relative viability (NCI-H1355; first compound 4 µM): 0.581
relative viability (CAL-12T; first compound 0.04 µM): 0.872
relative viability (CAL-12T; first compound 0.1265 µM): 0.714
relative viability (CAL-12T; first compound 0.4 µM): 0.734
relative viability (CAL-12T; first compound 1.265 µM): 0.737
relative viability (CAL-12T; first compound 4 µM): 0.784
relative viability (LCLC-97TM1; first compound 0.04 µM): 0.601
relative viability (LCLC-97TM1; first compound 0.1265 µM): 0.613
relative viability (LCLC-97TM1; first compound 0.4 µM): 0.804
relative viability (LCLC-97TM1; first compound 1.265 µM): 0.65
relative viability (LCLC-97TM1; first compound 4 µM): 0.649
relative viability (NCI-H647; first compound 0.04 µM): 0.658
relative viability (NCI-H647; first compound 0.1265 µM): 0.685
relative viability (NCI-H647; first compound 0.4 µM): 0.87
relative viability (NCI-H647; first compound 1.265 µM): 0.641
relative viability (NCI-H647; first compound 4 µM): 0.632
relative viability (NCI-H2087; first compound 0.04 µM): 0.836
relative viability (NCI-H2087; first compound 0.1265 µM): 0.6
relative viability (NCI-H2087; first compound 0.4 µM): 0.595
relative viability (NCI-H2087; first compound 1.265 µM): 0.701
relative viability (NCI-H2087; first compound 4 µM): 0.533
relative viability (NCI-H1650; first compound 0.04 µM): 0.555
relative viability (NCI-H1650; first compound 0.1265 µM): 0.517
relative viability (NCI-H1650; first compound 0.4 µM): 0.616
relative viability (NCI-H1650; first compound 1.265 µM): 0.473
relative viability (NCI-H1650; first compound 4 µM): 0.534
relative viability (NCI-H2405; first compound 0.04 µM): 1.09
relative viability (NCI-H2405; first compound 0.1265 µM): 0.938
relative viability (NCI-H2405; first compound 0.4 µM): 1.06
relative viability (NCI-H2405; first compound 4 µM): 0.976
relative viability (201T; first compound 0.04 µM): 0.995
relative viability (201T; first compound 0.1265 µM): 1.01
relative viability (201T; first compound 0.4 µM): 1.06
relative viability (201T; first compound 1.265 µM): 1.01
relative viability (201T; first compound 4 µM): 1.07
relative viability (NCI-H3122; first compound 0.04 µM): 1.27
relative viability (NCI-H3122; first compound 0.1265 µM): 0.99
relative viability (NCI-H3122; first compound 0.4 µM): 0.96
relative viability (NCI-H3122; first compound 1.265 µM): 1.01
relative viability (NCI-H3122; first compound 4 µM): 1.12
relative viability (NCI-H727; first compound 0.1265 µM): 1.28
relative viability (NCI-H727; first compound 0.4 µM): 1.17
relative viability (NCI-H727; first compound 1.265 µM): 1.1
relative viability (NCI-H727; first compound 4 µM): 1.17
relative viability (NCI-H2228; first compound 0.04 µM): 0.795
relative viability (NCI-H2228; first compound 0.1265 µM): 0.589
relative viability (NCI-H2228; first compound 0.4 µM): 0.653
relative viability (NCI-H2228; first compound 1.265 µM): 0.723
relative viability (NCI-H2228; first compound 4 µM): 0.751
relative viability (HOP-62; first compound 0.04 µM): 0.6
relative viability (HOP-62; first compound 0.1265 µM): 0.557
relative viability (HOP-62; first compound 0.4 µM): 0.758
relative viability (HOP-62; first compound 1.265 µM): 0.597
relative viability (HOP-62; first compound 4 µM): 0.642
relative viability (LXF-289; first compound 0.04 µM): 0.844
relative viability (LXF-289; first compound 0.1265 µM): 0.832
relative viability (LXF-289; first compound 0.4 µM): 0.801
relative viability (LXF-289; first compound 1.265 µM): 0.712
relative viability (LXF-289; first compound 4 µM): 0.75
relative viability (HCC-827; first compound 0.04 µM): 0.767
relative viability (HCC-827; first compound 0.1265 µM): 0.953
relative viability (HCC-827; first compound 1.265 µM): 0.741
relative viability (HCC-827; first compound 4 µM): 0.86
relative viability (SK-LU-1; first compound 0.04 µM): 0.829
relative viability (SK-LU-1; first compound 0.1265 µM): 0.798
relative viability (SK-LU-1; first compound 0.4 µM): 1
relative viability (SK-LU-1; first compound 1.265 µM): 0.721
relative viability (SK-LU-1; first compound 4 µM): 0.8
relative viability (LCLC-103H; first compound 0.04 µM): 0.776
relative viability (LCLC-103H; first compound 0.1265 µM): 0.765
relative viability (LCLC-103H; first compound 0.4 µM): 0.826
relative viability (LCLC-103H; first compound 1.265 µM): 0.738
relative viability (LCLC-103H; first compound 4 µM): 0.726
relative viability (NCI-H2023; first compound 0.04 µM): 0.674
relative viability (NCI-H2023; first compound 0.1265 µM): 0.688
relative viability (NCI-H2023; first compound 0.4 µM): 0.716
relative viability (NCI-H2023; first compound 1.265 µM): 0.5
relative viability (NCI-H2023; first compound 4 µM): 0.628
